target: T1, elastase derived from human sputum (HSE) (Homo sapiens, UniProt P08246); test: In vitro inhibition of elastase (ONO-PO series); format: biochemical; conditions: substrate N-methoxysuccinyl-Ala-Ala-Pro-Val-p-nitroaniline, 37° C., pH 8.0, IC50 converted to Ki by Dixson plot
T1 construct: prepared from commercially available HSE (875 U/mg protein, SE-563, Elastin Product Co., Inc., Missouri, USA); purchased Elastin Product Co., Inc., Missouri, USA SE-563; host or cells: human sputum (natural enzyme)
T1 sequence (P08246 30-247 limits assumed): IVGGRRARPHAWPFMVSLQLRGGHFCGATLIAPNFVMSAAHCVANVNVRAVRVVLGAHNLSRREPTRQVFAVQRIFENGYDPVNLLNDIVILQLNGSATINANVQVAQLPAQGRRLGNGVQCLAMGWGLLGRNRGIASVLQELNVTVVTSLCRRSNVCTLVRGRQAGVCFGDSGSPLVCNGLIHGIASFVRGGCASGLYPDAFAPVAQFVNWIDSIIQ

| Ki [nM] | Compound |
| --- | --- |
| 13.9 | CC(C)[C@H](NC(=O)Cn1c(-c2ccc(F)cc2)ncc(N)c1=O)C(=O)c1nnc(-c2cccnc2)o1 [ONO-PO-695, 2-[5-Amino-6-oxo-2-(4-fluorophenyl)-1,6-dihydro-1-pyrimidinyl]-N-[1-(2-[5-(3-pyridyl)-1,3,4-oxadiazolyl]carbonyl)-2-(S)-methylpropyl]acetamide] |
| 21.2 | COc1ccc(-c2nnc(C(=O)[C@@H](NC(=O)Cn3c(-c4ccc(F)cc4)ncc(N)c3=O)C(C)C)o2)cc1 [ONO-PO-699, 2-[5-Amino-6-oxo-2-(4-fluorophenyl)-1,6-dihydro-1-pyrimidinyl]-N-[1-(2-[5-(4-methoxyphenyl)-1,3,4-oxadiazolyl]carbonyl)-2-(S)-methylpropyl]acetamide] |
| 730 | CC(C)C[C@@H]1NC(=O)N(CC(=O)N[C@H](C(=O)c2nnc(C(C)(C)C)o2)C(C)C)C1=O [ONO-PO-708, 4-(S)-(2-Isobutyl)-2,5-imidazolidinedione-N-[1-(2-[5-tert-butyl-1,3,4-oxadiazolyl]carbonyl)-2-(S)-methylpropyl]acetamide] |
| 2.55 | CC(C)[C@H](NC(=O)Cn1c(-c2ccccc2)ncc(N)c1=O)C(=O)c1nnc(C(C)(C)c2ccccc2)o1 [ONO-PO-711, 2-[5-Amino-6-oxo-2-phenyl-1,6-dihydro-1-pyrimidinyl]-N-[1-(2-[5-(α,α-dimethylbenzyl)-1,3,4-oxadiazolyl]carbonyl)-2-(S)-methylpropyl]acetamide] |
| 25.9 | CC(C)[C@H](NC(=O)CN1C(=O)N[C@H](C(C)C)C1=O)C(=O)c1nnc(C(C)(C)c2ccccc2)o1 [ONO-PO-720, 4-(R)-Isopropyl-2,5-imidazolidinedione-N-[1-(2-[5-(α,α-dimethylbenzyl)-1,3,4-oxadiazolyl]carbonyl)-2-(S)-methylpropyl]acetamide] |
| 3.35 | CC(C)[C@H](NC(=O)Cn1c(-c2ccc(F)cc2)nccc1=O)C(=O)c1nnc(C(C)(C)c2ccccc2)o1 [ONO-PO-722, 2-[6-Oxo-2-(4-fluorophenyl)-1,6-dihydro-1-pyrimidinyl]-N-[1-(2-[5-(α,α-dimethylbenzyl)-1,3,4-oxadiazolyl]carbonyl)-2-(S)-methylpropyl]acetamide] |
| 4280 | CC(C)[C@H](NC(=O)Cn1c(-c2ccccc2)cccc1=O)C(=O)c1nnc(C(C)(C)C)o1 [ONO-PO-725, 2-[6-Oxo-2-phenyl-1,6-dihydro-1-pyridinyl]-N-[1-(2-[5-tert-butyl-1,3,4-oxadiazolyl]carbonyl)-2-(S)-methylpropyl]acetamide] |
| 8.75 | CC(C)[C@H](NC(=O)Cn1c(-c2ccccc2)ncc(N)c1=O)C(=O)c1nnc(C2(C)CC2)o1 [ONO-PO-728, 2-[5-Amino-6-oxo-2-phenyl-1,6-dihydro-1-pyrimidinyl]-N-[1-(2-[5-(1-methylcyclopropyl)-1,3,4-oxadiazolyl]carbonyl)-2-(S)-methylpropyl]acetamide] |
| 23.5 | CC(C)[C@H](NC(=O)Cn1c(-c2ccccc2)nccc1=O)C(=O)c1nnc(C(C)(C)C)o1 [ONO-PO-730, 2-[6-Oxo-2-phenyl-1,6-dihydro-1-pyrimidinyl]-N-[1-(2-[5-tert-butyl-1,3,4-oxadiazolyl]carbonyl)-2-(S)-methylpropyl]acetamide] |

More lines, now with the values behind:

| Compound | Ki [nM] |
| --- | --- |
| CC(C)[C@H](NC(=O)Cn1c(-c2ccc(F)cc2)ncc(NC(=O)OCc2ccccc2)c1=O)C(=O)c1nnc(-c2ccccc2)o1 [ONO-PO-697, 2-[5-(Benzyloxycarbonyl)amino-6-oxo-2-(4-fluorophenyl)-1,6-dihydro-1-pyrimidinyl]-N-[1-(2-[5-phenyl-1,3,4-oxadiazolyl]carbonyl)-2-(S)-methylpropyl]acetamide] | 27.3 |
| CC(C)[C@H](NC(=O)Cn1c(-c2ccc(F)cc2)ncc(NC(=O)OCc2ccccc2)c1=O)C(=O)c1nnc(C(C)(C)C)o1 [ONO-PO-698, 2-[5-(Benzyloxycarbonyl)amino-6-oxo-2-(4-fluorophenyl)-1,6-dihydro-1-pyrimidinyl]-N-[1-(2-[5-tert-butyl-1,3,4-oxadiazolyl]carbonyl)-2-(S)-methylpropyl]acetamide] | 0.77 |
| CC(C)[C@H](NC(=O)Cn1c(-c2ccc(F)cc2)ncc(N)c1=O)C(=O)c1nnc(C(C)(C)c2ccc(O)c(O)c2)o1 [ONO-PO-701, 2-[5-Amino-6-oxo-2-(4-fluorophenyl)-1,6-dihydro-1-pyrimidinyl]-N-[1-(2-[5-(α,α-dimethyl-3,4-dihydroxybenzyl)-1,3,4-oxadiazolyl]carbonyl)-2-(S)-methylpropyl]acetamide] | 2.98 |
| Cc1cccc(Cc2nnc(C(=O)[C@@H](NC(=O)Cn3c(-c4ccc(F)cc4)ncc(NS(C)(=O)=O)c3=O)C(C)C)o2)c1 [ONO-PO-702, 2-[5-(Methylsulfonyl)amino-6-oxo-2-(4-fluorophenyl)-1,6-dihydro-1-pyrimidinyl]-N-[1-(2-[5-(3-methylbenzyl)-1,3,4-oxadiazolyl]carbonyl)-2-(S)-methylpropyl]acetamide] | 1.78 |
| CC(C)[C@H](NC(=O)Cn1c(-c2ccc(F)cc2)ncc(N)c1=O)C(=O)c1nnc(Cc2ccccc2)o1 [ONO-PO-703, 2-[5-Amino-6-oxo-2-(4-fluorophenyl)-1,6-dihydro-1-pyrimidinyl]-N-[1-(2-[5-benzyl-1,3,4-oxadiazolyl]carbonyl)-2-(S)-methylpropyl]acetamide] | 2.25 |
| Cc1nnc(C(=O)[C@@H](NC(=O)Cn2c(-c3ccc(F)cc3)ncc(N)c2=O)C(C)C)o1 [ONO-PO-704, 2-[5-Amino-6-oxo-2-(4-fluorophenyl)-1,6-dihydro-1-pyrimidinyl]-N-[1-(2-[5-methyl-1,3,4-oxadiazolyl]carbonyl)-2-(S)-methylpropyl]acetamide] | 14 |
| CC(C)c1nnc(C(=O)[C@@H](NC(=O)Cn2c(-c3ccc(F)cc3)ncc(N)c2=O)C(C)C)o1 [ONO-PO-705, 2-[5-Amino-6-oxo-2-(4-fluorophenyl)-1,6-dihydro-1-pyrimidinyl]-N-[1-(2-[5-isopropyl-1,3,4-oxadiazolyl]carbonyl)-2-(S)-methylpropyl]acetamide] | 10.7 |
| CCCCc1nnc(C(=O)[C@@H](NC(=O)Cn2c(-c3ccc(F)cc3)ncc(N)c2=O)C(C)C)o1 [ONO-PO-706, 2-[5-Amino-6-oxo-2-(4-fluorophenyl)-1,6-dihydro-1-pyrimidinyl]-N-[1-(2-[5-butyl-1,3,4-oxadiazolyl]carbonyl)-2-(S)-methylpropyl]acetamide] | 6.76 |
| CC(C)C[C@@H]1NC(=O)N(CC(=O)N[C@H](C(=O)c2nnc(C(C)(C)c3ccccc3)o2)C(C)C)C1=O [ONO-PO-709, 4-(S)-(2-Isobutyl)-2,5-imidazolidinedione-N-[1-(2-[5-(α,α-dimethylbenzyl)-1,3,4-oxadiazolyl]carbonyl)-2-(S)-methylpropyl]acetamide] | 25.7 |
| CC(C)[C@H](NC(=O)[C@@H]1CCCN1C(=O)[C@@H](NS(C)(=O)=O)C(C)C)C(=O)c1nnc(C(C)(C)c2ccccc2)o1 [ONO-PO-710, Methylsulfonyl-L-valyl-N-[1-(2-[5-(α,α-dimethylbenzyl)-1,3,4-oxadiazolyl]carbonyl)-2-(S)-methylpropyl]-L-prolinamide] | 2.39 |
| CC(C)[C@H](NC(=O)Cn1c(-c2cccnc2)ncc(N)c1=O)C(=O)c1nnc(C(C)(C)C)o1 [ONO-PO-712, 2-[5-Amino-6-oxo-2-(3-pyridyl)-1,6-dihydro-1-pyrimidinyl]-N-[1-(2-[5-tert-butyl-1,3,4-oxadiazolyl]carbonyl)-2-(S)-methylpropyl]acetamide] | 16.6 |
| CC(C)[C@H](NC(=O)[C@@H]1CCCN1C(=O)[C@@H](NS(C)(=O)=O)C(C)C)C(=O)c1nnc(C(C)(C)C)o1 [ONO-PO-713] | 12 |
| CC(C)[C@H](NC(=O)Cn1c(-c2cccnc2)ncc(N)c1=O)C(=O)c1nnc(C(C)(C)c2ccccc2)o1 [ONO-PO-715, 2-[5-Amino-6-oxo-2-(3-pyridyl)-1,6-dihydro-1-pyrimidinyl]-N-[1-(2-[5-(α,α-dimethylbenzyl)-1,3,4-oxadiazolyl]carbonyl)-2-(S)-methylpropyl]acetamide] | 3.54 |
| CC(C)[C@H](NC(=O)CN1C(=O)CN=C(c2ccc(Cl)cc2)c2ccccc21)C(=O)c1nnc(C(C)(C)C)o1 [ONO-PO-717, 2-Oxo-5-(4-chlorophenyl)-1,4-benzodiazepine-N-[1-(2-[5-tert-butyl-1,3,4-oxadiazolyl]carbonyl)-2-(S)-methylpropyl]acetamide] | 57.8 |
| CC(C)[C@H](NC(=O)CN1C(=O)N[C@H](C(C)C)C1=O)C(=O)c1nnc(C(C)(C)C)o1 [ONO-PO-719, 4-(R)-Isopropyl-2,5-imidazolidinedione-N-[1-(2-[5-tert-butyl-1,3,4-oxadiazolyl]carbonyl)-2-(S)-methylpropyl]acetamide] | 836 |
| CC(C)[C@H](NC(=O)CN1C(=O)N[C@H](Cc2c[nH]c3ccccc23)C1=O)C(=O)c1nnc(C(C)(C)C)o1 [ONO-PO-723, 4-(R)-(3-Indolemethylene)-2,5-imidazolidinedione-N-[1-(2-[5-tert-butyl-1,3,4-oxadiazolyl]carbonyl)-2-(S)-methylpropyl]acetamide] | 163 |
| CC(C)[C@H](NC(=O)CN1C(=O)N[C@H](Cc2c[nH]c3ccccc23)C1=O)C(=O)c1nnc(C(C)(C)c2ccccc2)o1 [ONO-PO-724, 4-(R)-(3-Indolemethylene)-2,5-imidazolidinedione-N-[1-(2-[5-(α,α-dimethylbenzyl)-1,3,4-oxadiazolyl]carbonyl)-2-(S)-methylpropyl]acetamide] | 14.4 |
| CC(C)[C@H](NC(=O)Cn1c(-c2ccccc2)cccc1=O)C(=O)c1nnc(C(C)(C)c2ccccc2)o1 [ONO-PO-726, 2-[6-Oxo-2-phenyl-1,6-dihydro-1-pyridinyl]-N-[1-(2-[5-(α,α-dimethylbenzyl)-1,3,4-oxadiazolyl]carbonyl)-2-(S)-methylpropyl]acetamide] | 590 |

— patent US6656911B2, “Serine protease inhibitors” (Cortech, Inc., priority 1994, dated 2003)
